Laboratory results taken from the supplement of paper PMC11061612.

Columns and labels:
Assay in all cases: combination Emax (second highest fraction inhibited in the dose matrix, 72 h); higher = more inhibition; extreme values may be limits of the assay
[1] = tested on: NCI-H2122 (Lung Adenocarcinoma)
Method in brief: (§1)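 Bliss excess equals the observed combination effect minus the expected value EA + EB − EA·EB, where EA and EB are the effects of each agent alone. Combination Emax is the second-highest inhibition within the matrix. Inhibition was scaled from CellTiter-Glo 2.0 luminescence, with 0 set by vehicle wells and 1 by blank wells, after 72 hours of two-drug dosing of cells plated in 1536-well plates.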

[2] = tested on: ALL-SIL (T-Lymphoblastic Leukemia)
Method in brief: as §1

EW-1 (Ewing's Sarcoma) = tested on: EW-1 (Ewing's Sarcoma)
Method in brief: as §1

[3] = tested on: HCC1937 (Breast Carcinoma)
Method in brief: as §1

Row | SMILES | combination Emax [1] | combination Emax [2] | combination Emax (EW-1 (Ewing's Sarcoma)) | combination Emax [3]
1 | CN(CCO)CC[C@H](CSc1ccccc1)Nc1ccc(S(=O)(=O)NC(=O)c2ccc(N3CCC([C@@H](O)c4ccccc4-c4ccc(Cl)cc4)CC3)cc2)cc1S(=O)(=O)C(F)(F)F [AZD4320] + CCN(CCO)CCCOc1ccc2c(Nc3cc(CC(=O)Nc4cccc(F)c4)[nH]n3)ncnc2c1 [AZD2811] (first compound max 1 µM, 7x7, partner max 1 µM) | 0.794 | 1 | 0.863 | 0.489
2 | COc1cc2ncnc(Nc3ccc(F)c(Cl)c3)c2cc1OCCCN1CCOCC1 [Gefitinib] + CC(C)n1c(=O)n(C)c2cnc3cc(F)c(-c4ccc(OCCCN5CCCCC5)nc4)cc3c21 [AZD1390] (first compound max 10 µM, 7x7, partner max 0.3 µM) | 0.626 | 0.301 | 0.344 | 0.272
3 | COc1cc2c(cc1OCCCCCOc1cc3c(cc1OC)C(=O)N1C=C(C)C[C@H]1C=N3)N=C[C@@H]1CC(C)=CN1C2=O [SG3199] + O=C(c1cc(Cc2n[nH]c(=O)c3ccccc23)ccc1F)N1CCN(C(=O)C2CC2)CC1 [Olaparib] (first compound max 0.001 µM, 7x7, partner max 10 µM) | 0.21 | 0.337 | 0.636 | 0.14
4 | Cc1cc2ncnn2cc1Nc1ncc2c(n1)n(C1CCOCC1)c(=O)n2C [AZD7648] + C[C@@H]1COCCN1C2=NC(=NC(=C2)C3(CC3)[S@](=N)(=O)C)C4=C5C=CNC5=NC=C4 [AZD6738] (first compound max 10 µM, 7x7, partner max 10 µM) | 0.949 | 0.925 | 0.871 | 0.527
5 | CN(CCO)CC[C@H](CSc1ccccc1)Nc1ccc(S(=O)(=O)NC(=O)c2ccc(N3CCC([C@@H](O)c4ccccc4-c4ccc(Cl)cc4)CC3)cc2)cc1S(=O)(=O)C(F)(F)F [AZD4320] + Cn1cnc2c(F)c(Nc3ccc(Br)cc3Cl)c(C(=O)NOCCO)cc21 [Selumetinib] (first compound max 1 µM, 7x7, partner max 3 µM) | 0.8 | 1 | 0.921 | 0.601
6 | CN(CCO)CC[C@H](CSc1ccccc1)Nc1ccc(S(=O)(=O)NC(=O)c2ccc(N3CCC([C@@H](O)c4ccccc4-c4ccc(Cl)cc4)CC3)cc2)cc1S(=O)(=O)C(F)(F)F [AZD4320] + C1CN(CCC1(C(=O)N[C@@H](CCO)C2=CC=C(C=C2)Cl)N)C3=NC=NC4=C3C=CN4 [Capivasertib] (first compound max 1 µM, 7x7, partner max 3 µM) | 0.411 | 1 | 0.67 | 0.434
7 | C[C@@H](c1ccc2nccn2c1)n1nnc2ncc(-c3cnn(C)c3)nc21 [Savolitinib] + Cc1c2c(nn1C)CSCc1cc(n(C)n1)CSc1cc(c3ccccc3c1)OCCCc1c(C(=O)O)n(C)c3c-2c(Cl)ccc13 [AZD5991] (first compound max 1 µM, 7x7, partner max 1 µM) | 0.64 | 0.264 | 0.2 | 0.182
8 | Cc1c2c(nn1C)CSCc1cc(n(C)n1)CSc1cc(c3ccccc3c1)OCCCc1c(C(=O)O)n(C)c3c-2c(Cl)ccc13 [AZD5991] + Cn1cnc2c(F)c(Nc3ccc(Br)cc3Cl)c(C(=O)NOCCO)cc21 [Selumetinib] (first compound max 1 µM, 7x7, partner max 3 µM) | 0.935 | 1 | 0.273 | 0.464
9 | CN(CCO)CC[C@H](CSc1ccccc1)Nc1ccc(S(=O)(=O)NC(=O)c2ccc(N3CCC([C@@H](O)c4ccccc4-c4ccc(Cl)cc4)CC3)cc2)cc1S(=O)(=O)C(F)(F)F [AZD4320] + C[C@@H]1COCCN1C2=NC(=NC(=C2)C3(CC3)[S@](=N)(=O)C)C4=C5C=CNC5=NC=C4 [AZD6738] (first compound max 1 µM, 7x7, partner max 10 µM) | 0.972 | 1 | 0.997 | 0.761
10 | C[C@@H](c1ccc2nccn2c1)n1nnc2ncc(-c3cnn(C)c3)nc21 [Savolitinib] + CC1(C)CCC(CN2CCN(c3ccc(C(=O)NS(=O)(=O)c4ccc(NCC5CCOCC5)c([N+](=O)[O-])c4)c(Oc4cnc5[nH]ccc5c4)c3)CC2)=C(c2ccc(Cl)cc2)C1 [Venetoclax] (first compound max 1 µM, 7x7, partner max 1 µM) | 0.196 | 0.675 | 0.112 | 0.165
11 | Cc1cc2ncnn2cc1Nc1ncc2c(n1)n(C1CCOCC1)c(=O)n2C [AZD7648] + O=C(c1cc(Cc2n[nH]c(=O)c3ccccc23)ccc1F)N1CCN(C(=O)C2CC2)CC1 [Olaparib] (first compound max 10 µM, 7x7, partner max 10 µM) | 0.242 | 0.315 | 0.732 | 0.154
12 | Cc1cc2ncnn2cc1Nc1ncc2c(n1)n(C1CCOCC1)c(=O)n2C [AZD7648] + C=CCn1c(=O)c2cnc(Nc3ccc(N4CCN(C)CC4)cc3)nc2n1-c1cccc(C(C)(C)O)n1 [AZD1775] (first compound max 10 µM, partner max 1 µM) | 0.766 | 0.867 | 0.832 | 0.52
13 | Cc1cc2ncnn2cc1Nc1ncc2c(n1)n(C1CCOCC1)c(=O)n2C [AZD7648] + CN(C)CCCOc1ccc(-c2ccc3ncc4c(c3c2)n(C2CCOCC2)c(=O)n4C)cn1 [AZD0156] (first compound max 10 µM, 7x7, partner max 1 µM) | 0.253 | 0.321 | 0.34 | 0.221
14 | Cc1nc(Nc2ncc(C(=O)Nc3c(C)cccc3Cl)s2)cc(N2CCN(CCO)CC2)n1 [Dasatinib] + CC(=O)Nc1cccc(-n2c(=O)n(C3CC3)c(=O)c3c(Nc4ccc(I)cc4F)n(C)c(=O)c(C)c32)c1 [Trametinib] (first compound max 2 µM, 7x7, partner max 1 µM) | 0.942 | 1 | 0.153 | 0.5
15 | Cc1cc2ncnn2cc1Nc1ncc2c(n1)n(C1CCOCC1)c(=O)n2C [AZD7648] + CCN(CCO)CCCOc1ccc2c(Nc3cc(CC(=O)Nc4cccc(F)c4)[nH]n3)ncnc2c1 [AZD2811] (first compound max 10 µM, 7x7, partner max 1 µM) | 0.355 | 0.97 | 0.312 | 0.234
16 | CN(CCO)CC[C@H](CSc1ccccc1)Nc1ccc(S(=O)(=O)NC(=O)c2ccc(N3CCC([C@@H](O)c4ccccc4-c4ccc(Cl)cc4)CC3)cc2)cc1S(=O)(=O)C(F)(F)F [AZD4320] + Cc1cc2ncnn2cc1Nc1ncc2c(n1)n(C1CCOCC1)c(=O)n2C [AZD7648] (first compound max 1 µM, 7x7, partner max 10 µM) | 0.273 | 1 | 0.745 | 0.29
17 | CN(CCO)CC[C@H](CSc1ccccc1)Nc1ccc(S(=O)(=O)NC(=O)c2ccc(N3CCC([C@@H](O)c4ccccc4-c4ccc(Cl)cc4)CC3)cc2)cc1S(=O)(=O)C(F)(F)F [AZD4320] + C[C@@H](Nc1cc(F)cc(F)c1)c1cc(C(=O)N(C)C)cc2c(=O)cc(N3CCOCC3)oc12 [AZD8186] (first compound max 1 µM, 7x7, partner max 3 µM) | 0.536 | 1 | 0.924 | 0.63
